Molecular target: T1, HAD4 (PfHAD4) (Plasmodium falciparum, UniProt Q8III4)
T1 construct: gene PF3D7_1118400
Experiment: biochemical

T1 sequence (Q8III4 1-306): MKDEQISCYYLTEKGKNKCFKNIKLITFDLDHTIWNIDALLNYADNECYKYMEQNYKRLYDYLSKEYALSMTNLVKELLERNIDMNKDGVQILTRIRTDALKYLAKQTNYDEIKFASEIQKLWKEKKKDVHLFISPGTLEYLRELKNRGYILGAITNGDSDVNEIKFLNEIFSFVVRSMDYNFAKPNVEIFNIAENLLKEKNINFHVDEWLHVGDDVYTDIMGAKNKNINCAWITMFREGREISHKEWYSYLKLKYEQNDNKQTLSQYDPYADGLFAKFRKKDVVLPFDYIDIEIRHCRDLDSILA

With `O=P(O)(O)O` [inorganic phosphate] the IC50 was 2100 ± 210 µM.
